Test results as given in patent US20250236609A1, “VPS34 INHIBITORS AND METHODS OF USE THEREOF” (Deciphera Pharmaceuticals, LLC, priority 2023, published 2025).
pIC50: −log10 of the molar value.

molecular target: VPS34 (Homo sapiens (Human), UniProt Q8NEB9); assay: Biochemical Assay for VPS34 (ADP-Glo kinase activity assay); details: 25 nM VPS34, 1 mM ATP, 1-hour incubation at 37° C.; read-out: VPS34 (Inhibition of biochemical activity of VPS34, IC50)
Description: Activity of VPS34 kinase was determined using an ADP-Glo kinase activity assay (Promega Corp). Assays were conducted in 384-well plates (5 μL assay volume) using 25 nM VPS34 (ThermoFisher Scientific), […] PI:3PS Lipid Kinase Substrate (Promega Corp.), and 1 mM ATP in kinase buffer. Inhibition of VPS34 was measured by adding serial diluted test compound (final assay concentration of 0.1% DMSO) followed by a 1-hour incubation at 37° C. ADP-Glo reagent was then added ([…]) followed by a 40 min incubation at rt. Kinase detection reagent was then added ([…]) and followed by a 60 min incubation at rt. Luminescence was then detected. The RLU at each compound concentration of was converted to percent inhibition using controls (i.e., reaction with no test compound and reaction with a known inhibitor) and IC50 values were calculated by fitting a four-parameter sigmoidal curve to the data using GeneData Screener software.
VPS34 Protein Sequence (Full Length with GST Tag)

VPS34, sequence (Q8NEB9 other isoform, or with tags, fused parts or gaps): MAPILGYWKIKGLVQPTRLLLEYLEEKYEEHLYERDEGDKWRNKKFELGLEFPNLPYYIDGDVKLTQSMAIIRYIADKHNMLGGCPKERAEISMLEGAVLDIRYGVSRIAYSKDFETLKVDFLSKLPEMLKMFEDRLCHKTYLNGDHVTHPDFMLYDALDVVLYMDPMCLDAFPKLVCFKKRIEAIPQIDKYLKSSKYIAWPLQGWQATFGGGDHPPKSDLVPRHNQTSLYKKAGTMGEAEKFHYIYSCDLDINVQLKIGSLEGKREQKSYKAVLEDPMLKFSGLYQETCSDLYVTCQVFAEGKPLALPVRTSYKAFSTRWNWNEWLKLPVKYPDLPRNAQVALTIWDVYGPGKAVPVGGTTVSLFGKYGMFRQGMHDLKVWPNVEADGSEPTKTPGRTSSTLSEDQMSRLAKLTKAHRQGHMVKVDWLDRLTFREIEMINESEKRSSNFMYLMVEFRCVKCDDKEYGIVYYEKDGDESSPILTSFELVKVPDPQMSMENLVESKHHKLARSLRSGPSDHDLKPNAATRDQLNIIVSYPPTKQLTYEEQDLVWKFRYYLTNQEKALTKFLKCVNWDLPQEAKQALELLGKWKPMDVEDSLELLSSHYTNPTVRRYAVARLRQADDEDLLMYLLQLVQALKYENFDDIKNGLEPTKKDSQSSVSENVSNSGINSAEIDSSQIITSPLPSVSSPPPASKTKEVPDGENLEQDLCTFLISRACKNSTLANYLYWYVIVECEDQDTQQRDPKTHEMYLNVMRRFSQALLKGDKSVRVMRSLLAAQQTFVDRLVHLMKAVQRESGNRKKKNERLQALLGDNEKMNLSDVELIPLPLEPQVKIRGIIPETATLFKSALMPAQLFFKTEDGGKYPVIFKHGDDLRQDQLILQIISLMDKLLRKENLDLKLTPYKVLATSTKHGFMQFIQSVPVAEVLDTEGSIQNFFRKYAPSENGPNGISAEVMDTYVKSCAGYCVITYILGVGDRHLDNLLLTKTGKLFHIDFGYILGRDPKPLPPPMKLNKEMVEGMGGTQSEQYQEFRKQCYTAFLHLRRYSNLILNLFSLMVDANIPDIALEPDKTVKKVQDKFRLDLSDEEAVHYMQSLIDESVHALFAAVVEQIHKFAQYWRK

pIC50	SMILES
5.00 to 6.00	Cc1nc(Nc2cc(-c3cc(N4CCCC[C@@H]4C(F)(F)F)[nH]c(=O)c3)c(C)cn2)no1 [Example 80]
5.00 to 6.00	COC(=O)Nc1cc(-c2cc(-c3cccnc3C3CC3)[nH]c(=O)c2)c(C)cn1 [Example 70]
≥ 7.00	Cc1cnc(NC(=O)C2CC2)cc1-c1cc(N2CCN(S(=O)(=O)C3CC3)C[C@@H]2C)[nH]c(=O)c1 [Example 82]
≥ 7.00	COC(=O)Nc1cc(-c2cc(N3CCN(S(=O)(=O)CCN(C)C)C[C@@H]3C)[nH]c(=O)c2)c(C)cn1 [Example 34]
5.00 to 6.00	Cc1cnc(NC(=O)CN(C)C)cc1-c1cc(N2CCCC[C@@H]2C(F)(F)F)[nH]c(=O)c1 [Example 19]
5.00 to 6.00	Cc1cnc(NC(=O)OC2CNC2)cc1-c1cc(N2CCCC[C@@H]2C(F)(F)F)[nH]c(=O)c1 [Example 54]
6.00 to 6.30	CNCCC(=O)Nc1cc(-c2cc(N3CCCC[C@@H]3C(F)(F)F)[nH]c(=O)c2)c(C)cn1 [Example 35]
5.00 to 6.00	Cc1cnc(N)cc1-c1cc(-c2cccnc2C(F)(F)F)[nH]c(=O)c1 [Example 55]
5.00 to 6.00	Cc1cnc(NC2COC2)cc1-c1cc(N2CCCC[C@@H]2C(F)(F)F)[nH]c(=O)c1 [Example 56]
6.30 to 7.00	CC(=O)Nc1cc(-c2cc(-c3cccnc3C(F)(F)F)[nH]c(=O)c2)c(C)cn1 [Example 9]
6.30 to 7.00	CCS(=O)(=O)N1CCN(c2cc(-c3cc(NC(=O)C4CC4)ncc3C)cc(=O)[nH]2)[C@@H](C)C1 [Example 76]
6.30 to 7.00	COC(=O)Nc1cc(-c2cc(-c3ccncc3C(F)(F)F)[nH]c(=O)c2)c(C)cn1 [Example 79]
5.00 to 6.00	CNCCC(=O)Nc1cc(-c2cc(-c3cccnc3C(F)(F)F)[nH]c(=O)c2)c(C)cn1 [Example 73]
5.00 to 6.00	Cc1cnc(NC(=O)[C@H]2CCN(C)C2)cc1-c1cc(N2CCCC[C@@H]2C(F)(F)F)[nH]c(=O)c1 [Example 57]
5.00 to 6.00	Cc1cnc(Nc2ccn(C)n2)cc1-c1cc(N2CCCC[C@@H]2C(F)(F)F)[nH]c(=O)c1 [Example 71]
6.30 to 7.00	COCCS(=O)(=O)N1CCN(c2cc(-c3cc(NC(=O)C4CC4)ncc3C)cc(=O)[nH]2)[C@@H](C)C1 [Example 83]
5.00 to 6.00	Cc1cnc(NC(=O)[C@@H]2CCN(C)C2)cc1-c1cc(N2CCCC[C@@H]2C(F)(F)F)[nH]c(=O)c1 [Example 65]
5.00 to 6.00	COC(=O)Nc1cc(-c2cc(N3CCN(C(=O)CCN(C)C)C[C@@H]3C)[nH]c(=O)c2)c(C)cn1 [Example 63]
5.00 to 6.00	CNc1cc(-c2cc(N3CCCC[C@@H]3C(F)(F)F)[nH]c(=O)c2)c(C)cn1 [Example 53]
5.00 to 6.00	Cc1cnc(NC(=O)C2CC2)cc1-c1cc(N2CCN(C(=O)CC3CC3)C[C@@H]2C)[nH]c(=O)c1 [Example 93]
5.00 to 6.00	CNCCC(=O)N1CCN(c2cc(-c3cc(NC(=O)OC)ncc3C)cc(=O)[nH]2)[C@@H](C)C1 [Example 60]
≥ 7.00	Cc1cnc(NC(=O)C2CC2)cc1-c1cc(N2CCN(S(=O)(=O)c3cnn(C)c3)C[C@@H]2C)[nH]c(=O)c1 [Example 84]

pIC50	SMILES
6.00 to 6.30	Cc1cnc(NC(=O)c2cn[nH]c2)cc1-c1cc(N2CCCC[C@@H]2C(F)(F)F)[nH]c(=O)c1 [Example 47]
5.00 to 6.00	CNC(=O)Nc1cc(-c2cc(-c3cccnc3C(F)(F)F)[nH]c(=O)c2)c(C)cn1 [Example 52]
5.00 to 6.00	Cc1cnc(NC(=O)C2CC2)cc1-c1cc(N2CCN(C(=O)c3ccc(F)cc3)C[C@@H]2C)[nH]c(=O)c1 [Example 88]
5.00 to 6.00	Cc1cnc(NC(=O)c2cnn(C)c2)cc1-c1cc(-c2cccnc2C(F)(F)F)[nH]c(=O)c1 [Example 68]
6.30 to 7.00	Cc1nccc(Nc2cc(-c3cc(NS(=O)(=O)c4ccc(F)cc4F)[nH]c(=O)c3)c(C)cn2)n1 [Example 96, 2,4-difluoro-N-(5′-methyl-2′-((2-methylpyrimidin-4-yl)amino)-6-oxo-1,6-dihydro-[4,4′-bipyridin]-2-yl)benzenesulfonamide]
5.00 to 6.00	Cc1cnc(NC(=O)c2cnn(C3CNC3)c2)cc1-c1cc(N2CCCC[C@@H]2C(F)(F)F)[nH]c(=O)c1 [Example 74]
6.30 to 7.00	COC(=O)Nc1cc(-c2cc(N3CCN(S(=O)(=O)CCN(C)C)C[C@@H]3C(F)(F)F)[nH]c(=O)c2)c(C)cn1 [Example 32]
5.00 to 6.00	Cc1cnc(N)cc1-c1cc(N2CCCC[C@@H]2C(F)(F)F)[nH]c(=O)c1 [Example 23]
5.00 to 6.00	COC(=O)Nc1cc(-c2cc(-c3cccnc3C(F)(F)F)[nH]c(=O)c2)c(CF)cn1 [Example 50]
≥ 7.00	Cc1cnc(Nc2ncn(C)n2)cc1-c1cc(N2CCCC[C@@H]2C(F)(F)F)[nH]c(=O)c1 [Example 42]
6.30 to 7.00	COC(=O)Nc1ncc(C)c(-c2cc(N3CCCC[C@@H]3C(F)(F)F)[nH]c(=O)c2)n1 [Example 8]
5.00 to 6.00	COC(=O)Nc1cc(-c2cc(N3CCOC[C@H]3C(F)(F)F)[nH]c(=O)c2)c(C)cn1 [Example 36]
≥ 7.00	Cc1ccc(Nc2cc(-c3cc(N4CCCC[C@@H]4C(F)(F)F)[nH]c(=O)c3)c(C)cn2)nn1 [Example 44]
6.00 to 6.30	Cc1cnnc(Nc2cc(-c3cc(N4CCCC[C@@H]4C(F)(F)F)[nH]c(=O)c3)c(C)cn2)c1 [Example 40]
5.00 to 6.00	Cc1cnc(NC(=O)C2COC2)cc1-c1cc(N2CCCC[C@@H]2C(F)(F)F)[nH]c(=O)c1 [Example 62]
≥ 7.00	Cc1cnc(NC(=O)C2CC2)cc1-c1cc(N2CCN(S(=O)(=O)CC3CC3)C[C@@H]2C)[nH]c(=O)c1 [Example 85]
6.30 to 7.00	Cc1cnc(Nc2nnn(C)n2)cc1-c1cc(N2CCCC[C@@H]2C(F)(F)F)[nH]c(=O)c1 [Example 43]
6.30 to 7.00	CNCCS(=O)(=O)Nc1ccc(-c2cc(-c3cc(NC(=O)C4CC4)ncc3C)cc(=O)[nH]2)c(C)c1 [Example 66]
6.00 to 6.30	Cc1cnc(NC(=O)c2cnn(C)c2)cc1-c1cc(N2CCCC[C@@H]2C(F)(F)F)[nH]c(=O)c1 [Example 31]
5.00 to 6.00	COC(=O)Nc1cc(-c2cc(-c3cccnc3C(F)(F)F)[nH]c(=O)c2)c(C2CC2)cn1 [Example 11]
5.00 to 6.00	COC(=O)Nc1cc(-c2cc(N3CCN(C(=O)CCN(C)C)C[C@@H]3C(F)(F)F)[nH]c(=O)c2)c(C)cn1 [Example 61]
5.00 to 6.00	Cc1cnccc1-c1cc(N2CCCC[C@@H]2C(F)(F)F)[nH]c(=O)c1 [Example 13]

pIC50	SMILES
5.00 to 6.00	CNCCC(=O)N1CCN(c2cc(-c3cc(NC(=O)OC)ncc3C)cc(=O)[nH]2)[C@@H](C(F)(F)F)C1 [Example 58]
6.00 to 6.30	Cc1cnc(Nc2cnn(C)c2)cc1-c1cc(N2CCCC[C@@H]2C(F)(F)F)[nH]c(=O)c1 [Example 29]
6.30 to 7.00	Cc1cnc(NC(=O)C2CC2)cc1-c1cc(NS(=O)(=O)c2ccc(F)cc2F)[nH]c(=O)c1 [compound 97]
5.00 to 6.00	COC[C@H]1CCCN1c1cc(-c2cc(NC(=O)OC)ncc2C)cc(=O)[nH]1 [Example 67]
6.00 to 6.30	Cc1cnc(Nc2cn(C)nn2)cc1-c1cc(N2CCCC[C@@H]2C(F)(F)F)[nH]c(=O)c1 [Example 39]
6.30 to 7.00	Cc1cnc(NC(=O)C2CC2)cc1-c1cc(-c2cnccc2C(F)(F)F)[nH]c(=O)c1 [Example 48]
5.00 to 6.00	Cc1cnc(NC(=O)NC2CC2)cc1-c1cc(N2CCCC[C@@H]2C(F)(F)F)[nH]c(=O)c1 [Example 59]
≥ 7.00	Cc1cncc(Nc2cc(-c3cc(N4CCCC[C@@H]4C(F)(F)F)[nH]c(=O)c3)c(C)cn2)n1 [Example 2, (R)-5′-methyl-2′-((6-methylpyrazin-2-yl)amino)-6-(2-(trifluoromethyl)piperidin-1-yl)-[4,4′-bipyridin]-2(1H)-one]
6.30 to 7.00	Cc1cnc(Nc2cnn(C)n2)cc1-c1cc(N2CCCC[C@@H]2C(F)(F)F)[nH]c(=O)c1 [Example 41]
6.00 to 6.30	Cc1cnc(NC(=O)C2CC2)cc1-c1cc(N2CCN(C(=O)c3cnn(C)c3)C[C@@H]2C)[nH]c(=O)c1 [Example 89]
5.00 to 6.00	COCCC(=O)N1CCN(c2cc(-c3cc(NC(=O)C4CC4)ncc3C)cc(=O)[nH]2)[C@@H](C)C1 [Example 95]
6.00 to 6.30	Cc1cnc(NC(=O)CC2CN(C)CC2(F)F)cc1-c1cc(N2CCCC[C@@H]2C(F)(F)F)[nH]c(=O)c1 (stereo partly shown) [Example 21]
6.30 to 7.00	Cc1cnc(NC(=O)OC2CC2)cc1-c1cc(N2CCCC[C@@H]2C(F)(F)F)[nH]c(=O)c1 [Example 30]
6.00 to 6.30	Cc1cnc(Nc2cnn(C)c2)cc1-c1cc(-c2cccnc2C(F)(F)F)[nH]c(=O)c1 [Example 33]
≥ 7.00	Cc1ccnc(Nc2cc(-c3cc(N4CCCC[C@@H]4C(F)(F)F)[nH]c(=O)c3)c(C)cn2)n1 [Example 72]
5.00 to 6.00	Cc1cnc(NC(=O)C2CC2)cc1-c1cc(N2CCN(C(=O)c3cccnc3)C[C@@H]2C)[nH]c(=O)c1 [Example 94]
5.00 to 6.00	Cc1cnc(Nc2cnn(CCN(C)C)c2)cc1-c1cc(N2CCCC[C@@H]2C(F)(F)F)[nH]c(=O)c1 [Example 69]
6.30 to 7.00	Cc1cnc(NC(=O)C2CC2)cc1-c1cc(N2CCN(S(=O)(=O)c3cc(F)ccc3F)C[C@@H]2C)[nH]c(=O)c1 [Example 86]
5.00 to 6.00	CNCC(=O)Nc1cc(-c2cc(-c3cccnc3C(F)(F)F)[nH]c(=O)c2)c(C)cn1 [Example 64]
6.30 to 7.00	COc1ccc(S(=O)(=O)N2CCN(c3cc(-c4cc(NC(=O)C5CC5)ncc4C)cc(=O)[nH]3)[C@@H](C)C2)cc1 [Example 87]
